Holding throughout (test): growth of human tumour cells (NCI), 48 h
In experiment [1] the test system is LOX IMVI melanoma.
Experiment [2] has as its system U251 CNS.
Experiment [3] relates to RXF 393 renal.
Experiment [4] relates to A549 NSCLC.
Experiment [5] relates to K-562 leukemia.
Experiment [6] relates to SK-MEL-5 melanoma.
For experiment [7], the system named is CAKI-1 renal.
Experiment [8] deals with NCI-H460 lung.
Experiment [9] relates to OVCAR-3 ovarian.
Experiment [10] concerns UACC-62 melanoma.

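Dose response: 5 concentrations. Exposure: 48 h. Format: 96-well plates. Endpoint: linear interpolation; highest concentration if not reached. GI50: concentration for 50% inhibition of growth. TGI is the concentration that stops growth completely.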

Regarding `Cc1c2cc[n+](Cc3ccc(I)cc3)cc2c(C)c2c1[nH]c1ccccc12`, the TGI in experiment [1] is > 25 µM; in experiment [2], 8.59 µM; in experiment [3], > 25 µM; in experiment [4], > 25 µM; in [5], 10.7 µM; in experiment [6], 1.33 µM. The TGI in experiment [7] came to 3.51 µM; in experiment [8], 1.93 µM; in [9], 3.72 µM; in experiment [10], 16.6 µM.
With `N#C[S-].[La+3].c1ccc(-c2ccccn2)nc1.c1ccc(-c2ccccn2)nc1.c1ccc(-c2ccccn2)nc1`, the GI50 in experiment [1] was 7.3 µM; in [2] it was 20.1 µM; in experiment [3], 22.5 µM; in experiment [4], 28.6 µM; in experiment [6] it was 10.4 µM; in experiment [7] it was 12.9 µM. The GI50 in [8] is 22.5 µM; in experiment [9], 64.6 µM; in [10] it was 19.5 µM. Moreover, the TGI was 68.3 µM in experiment [1]; > 100 µM in [2]; 84.7 µM in [3]; > 100 µM in experiment [4]; 34.8 µM in [6]; 60.8 µM in [7]. Besides, the TGI is 88.2 µM in [8], > 100 µM in experiment [9] and 50.3 µM in experiment [10].
As to `O=c1cc(-c2cccc(OC(F)(F)F)c2)[nH]c2ccc(N3CCCC3)cc12`, the TGI in experiment [2] is 16.5 µM; in experiment [3] it was 0.738 µM; in experiment [4] it was 44.5 µM; in [6] it was 0.0105 µM; in experiment [7], > 100 µM; in experiment [9], 0.000234 µM. In experiment [10], this compound yielded a TGI of 96.8 µM.
For the compound `[CH3][Sn]([CH3])([CH3])[S]C(=S)N1CCOCC1`, the GI50 in [1] is 1.39 µM; in [2], 2.82 µM; in experiment [3] it was 0.7 µM; in [4], 1.07 µM; in experiment [5] it was 0.36 µM; in experiment [6], 0.881 µM. For the same compound, the GI50 is 4 µM in experiment [7], 1.05 µM in experiment [8], 0.331 µM in experiment [9] and 0.553 µM in [10]. Moreover, the TGI in experiment [1] is 6.75 µM; in experiment [2] it was 11.4 µM; in experiment [4] it was > 92.7 µM; in [5], 5.84 µM; in experiment [6] it was 2.62 µM; in experiment [7], > 46.4 µM. For the same compound, the TGI is 4.38 µM in [8] and 1.32 µM in experiment [9].
As for `CCCCCCCCCCCC1N=C(N)N=C(N)N1c1cccc(Br)c1` (centres undefined), the GI50 in experiment [2] is 0.631 µM; in experiment [7], 1.8 µM; in experiment [8] it was 0.0779 µM. Further, the figures for the TGI in experiment [2], in experiment [7] and in experiment [8] were 1.98 µM, 4.12 µM and 1.65 µM, respectively.
In the case of `CC1OC(OC2C(O)CC(OC3C(O)CC(OC4CCC5(C)C(CCC6C5CCC5(C)C(C7=CC(=O)OC7)C(O)CC65O)C4)OC3C)OC2C)CC(O)C1O` (centres undefined), the TGI was 0.235 µM in [1]; 1.31 µM in [2]; 0.299 µM in [3]; 0.0706 µM in experiment [4]; > 100 µM in [5]; 0.533 µM in experiment [6]. For the same compound, the TGI in [7] came out at 0.396 µM; in experiment [8] it was 0.532 µM; in experiment [9], 0.497 µM; in experiment [10], 1.18 µM.
Regarding `O=C(Nc1cccc(-n2ccc3c(NC(=O)c4ccccc4)ncnc32)c1)Nc1ccc(Cl)c(C(F)(F)F)c1`, the GI50 in experiment [1] was 2.82 µM; in experiment [2], 2.09 µM; in experiment [3], 1.68 µM; in experiment [4] it was 2.11 µM; in experiment [5], 1.61 µM; in [6], 2.2 µM. The GI50 in experiment [7] was 2.04 µM; in experiment [8], 2.13 µM; in experiment [9], 2.62 µM; in [10], 1.77 µM. Further, the TGI in experiment [1] is 15 µM; in experiment [2] it was 8.39 µM; in experiment [3], 6.66 µM; in [4], 7.35 µM; in experiment [5] it was 50 µM; in experiment [6], 8.16 µM. The TGI was 10.9 µM in experiment [7], 9.88 µM in experiment [8], 8.9 µM in experiment [9] and 7.52 µM in experiment [10].
With `Brc1ccc2[nH]c3c(C4=NCCC4)nccc3c2c1`, the TGI in [1] is > 46.6 µM; in experiment [2] it was > 38.8 µM; in experiment [3] it was 71.2 µM; in experiment [4], > 100 µM; in experiment [5], > 41.9 µM; in [6], > 34.2 µM. Also, the TGI was > 53.1 µM in experiment [7], > 32.8 µM in experiment [8], > 100 µM in experiment [9] and 30.5 µM in experiment [10].
As to `Oc1c(Br)cc2c(c1Br)-c1c(c(O)c3c4c1=NCCC=4C=N3)NCC2`, the TGI in [1] was 20.9 µM; in experiment [2], 24.5 µM; in [3], 28.7 µM; in [4] it was > 80.8 µM; in [5] it was 40.9 µM; in experiment [6], 23.2 µM. Besides, the TGI in [7] stood at 42.2 µM; in experiment [8] it was 27.9 µM; in experiment [9], 8.47 µM; in experiment [10], 11.4 µM.
